How the values were obtained:
[1] = system: LMD9-Δblp::PcomX-luxABΔshp316::P32-cat; test: Natural transformation in CDM of the shp316-deleted strain upon addition of synthetic peptides (test A); assay type: cell-based, Streptococcus thermophilus; details: 1 μM synthetic peptide; for Transformation rate, With peptide addition: 1 μg/mL pGIUD0855ery, CDM, erythromycin selection; for Restoration of the competence defect: result in words
Description: A mutant strain of LMD-9 in which the shp316 gene (which is the gene encoding the peptide Shp316) has been inactivated, such as strain LMD9-Δblp::PcomX-luxABΔshp316::P32-cat (see Example 2 for details on this strain) is pre-cultivated in M17-lactose medium. The cells of the preculture are harvested (5000 g, 9 minutes, 20° C.) and washed twice in Chemically Defined Medium (CDM, see Annex I) and then resuspended in CDM. The washed cells are diluted in fresh CDM medium to obtain an optical density of 0.05 at 600 nm, and then incubated at 37° C. After 1.5 h of incubation, the culture is separated in 2 aliquots of 10 mL and 0 or 1000 nM of peptide are added in the culture samples. Finally, each 10 mL-aliquot is divided in 2 samples of 5 mL each. One of the 2 samples receives 1 μg/mL pGIUD0855ery, a plasmid bearing an erythromycin resistance gene. The competence phenotype of the samples is studied by performing natural transformation experiments as described in example 1. The cultures are grown for 6 hours and serial dilutions are plated on the surface of M17-lactose agar medium containing or not 2.5 μg/mL of erythromycin. The transformation rate in the presence or absence of peptide is calculated for each sample; it is expressed as the ratio of erythromycin-resistant cells among the total bacterial population.
The experimental strategy is described below. Strain LMD9-Δblp::PcomX-luxABΔshp316::P32-cat is precultivated in M17-lactose medium. The cells of the preculture were harvested (5000 g, 9 minutes, 20° C.) and washed twice in CDM and then resuspended in CDM. The washed cells are diluted in fresh CDM to obtain an optical density of 0.05 at 600 nm, and then incubated at 37° C. After 1.5 h of incubation, in one set of experiment, 1 μM of one of the tested synthetic peptides and 1 μg/mL of pGIUD0855ery were added to the culture; whereas 1 μg/mL of pGIUD0855ery but no synthetic peptide was added to the second set of experiment. The cultures were grown during 6 hours and serial dilutions were plated on the surface of M17-lactose agar medium containing 2.5 μg/mL of erythromycin to measure transformation efficiency.
Ability of peptides derived from Shp316 to restore the competence defect of LMD9-Δblp::PcomX-luxABΔshp316::P32-cat was further investigated focusing on the synthetic peptide PYFAGCL. Experimental work was performed as described above except that various concentrations of PYFAGCL were used: 0 nM, 1 nM, 10 nM, 100 nM, 500 nM, 1 μM, 2.5 μM and 5 μM. […]

S. thermophilus CNRZ1066 = test: Natural transformation in CDM upon addition of synthetic peptide; assay type: cell-based, Streptococcus thermophilus
Description: (§1) Similarly to the protocol used in example 4, strains LMD-9, LMG18311, CNRZ1066 and JIM8777 were pre-cultivated in M17-lactose medium. The cells of the precultures were harvested (5000 g, 9 minutes, 20° C.) and washed twice in CDM and then resuspended in CDM. The washed cells were diluted in fresh CDM medium to obtain an optical density of 0.05, and then incubated at 37° C. After 1.5 h of incubation, in one set of experiment, 1 μM of one of the tested synthetic peptides and 1 μg/mL of pGIUD0855ery DNA (in case of S. thermophilus strains), or 1 μg/ml of pG+host09 DNA (in case of S. salivarius strains) were added to the culture, whereas 1 μg/mL of DNA but no synthetic peptide was added to the second set of experiment. The cultures were grown during 6 hours and serial dilutions were plated on the surface of M17-lactose agar medium containing 2.5 μg/mL of erythromycin to measure transformation efficiency. Transformed S. thermophilus and S. salivarius cells are selected at 37° C. and 29° C., respectively.
Similarly to the protocol used in example 4, various S. thermophilus strains, including LMD-9, CNRZ1066 and LMG18311 used as controls, were pre-cultivated in M17-lactose medium. The cells of the precultures were harvested (5000 g, 9 minutes, 20° C.) and washed twice in CDM and then resuspended in CDM. The washed cells were diluted in fresh CDM medium to obtain an optical density of 0.05, and then incubated at 37° C. After 1.5 h of incubation, in one set of experiment, 1 μM of one of the tested synthetic peptides (LPYFAGCL) (SEQ ID NO: 85) and 1 μg/mL of pGIUD0855cat DNA were added to the culture, whereas 1 μg/mL of DNA but no synthetic peptide was added to the second set of experiment. Plasmid pGIUD0855cat is a pUC18-derivative containing a chloramphenicol resistance cassette flanked by 1-kb fragments corresponding to the upstream and downstream regions of stu0855. Upon transformation, it promotes the genetic replacement of stu0855 by P32-cat through homologous recombination (FIG. 7). The cultures were grown during 6 hours and serial dilutions were plated on the surface of M17-lactose agar medium containing 5 μg/mL of chloramphenicol to measure transformation efficiency. Transformed S. thermophilus cells were selected at 37° C.; when transformants were obtained, the transformation efficiency was calculated and is given in Table 9.
Day 2: • Centrifuge Day 1—culture (centrifugation parameters: 5000 g, 9 minutes, 15° C.) and perform two washing steps with one volume (10 mL) of CDM (centrifugation parameters: 5000 g, 9 minutes, 15° C.). • Dilute the culture in 10 mL CDM to obtain an OD600nm of 0.05. • A small volume of S. thermophilus cultures (300 μL) is then transferred in white microplate with a transparent bottom (655095; Greiner, Alphen aid Rijn, The Netherlands) and is grown at 37° C. Luminescence at 595 nm and optical density at 600 nm are recorded with the automatic Synergy HT multi-mode microplate reader. The luciferase activity catalysed by LuxAB requires the presence of nonanal as substrate. In this experimental set-up, nonanal (Acros Organics ref. 204-688-5) is supplied to the cultures by placing 50 μL of a solution containing 1% nonanal diluted in mineral oil in the spaces between the wells of a covered microplate (11). […] The luminescence and absorbance are scanned every 10 minutes during 6 hours. • To perform a competence experiment, 1 μg of donor DNA is added in the 300 μL samples in the beginning of incubation. […]

S. salivarius JIM8777 = test: as above; assay type: cell-based, Streptococcus salivarius
Description: as §1
Day 2: • Centrifuge Day 1—culture (centrifugation parameters: 5000 g, 9 minutes, 15° C.) and perform two washing steps with one volume (10 mL) of CDM (centrifugation parameters: 5000 g, 9 minutes, 15° C.). • Dilute the culture in 10 mL CDM to obtain an OD600nm of 0.05. • A small volume of S. thermophilus cultures (300 μL) is then transferred in white microplate with a transparent bottom (655095; Greiner, Alphen aid Rijn, The Netherlands) and is grown at 37° C. Luminescence at 595 nm and optical density at 600 nm are recorded with the automatic Synergy HT multi-mode microplate reader. The luciferase activity catalysed by LuxAB requires the presence of nonanal as substrate. In this experimental set-up, nonanal (Acros Organics ref. 204-688-5) is supplied to the cultures by placing 50 μL of a solution containing 1% nonanal diluted in mineral oil in the spaces between the wells of a covered microplate (11). The nonanal present in the solution will become volatile and there will be an equilibrium between the concentration of nonanal present in the air and in the culture samples. The luminescence and absorbance are scanned every 10 minutes during 6 hours. • To perform a competence experiment, 1 μg of donor DNA is added in the 300 μL samples in the beginning of incubation. […] In case of the sample that received DNA, make different 10-fold dilutions of the sample and plate 100 μL on the same solid selective medium. Check the viability of the cells in the samples by plating 10 μL of serial 10-fold dilutions of the cultures on M17, lactose 1% medium. Transformants are picked following 24 h of incubation at 37° C. in anaerobic conditions (gaspak BBL). […]

[2] = 1 μM PYFTGCL, 1 μg/mL pG+host09

Substance | Transformation rate, With peptide addition [1] | further results
PYFAGC (fragment) [synthetic peptide, fragment of Shp316 without the carboxy-terminal leucine] | <10^−8 | 
ILPYFAGC (fragment) [synthetic peptide, fragment of Shp316 without the carboxy-terminal leucine] | <10^−8 | 
AILPYFAGC (fragment) [synthetic peptide, fragment of Shp316 without the carboxy-terminal leucine] | <10^−8 | 
PYFAG (fragment) [synthetic peptide corresponding to a fragment of Shp316 without the C-terminal CL] | <10^−8 | 
PYFTGCL (fragment) [alanine in position 4 replaced by threonine] |  | Transformation rate, With peptide addition (S. thermophilus CNRZ1066; [2]): 3.48 × 10^−7; Complementation of the transformation defect in CDM (S. thermophilus CNRZ1066; 1 μM peptide, result in words): able to complement the transformation defect; Transformation rate, With peptide addition (S. salivarius JIM8777; [2]): 5.77 × 10^−7; Complementation of the transformation defect in CDM (S. salivarius JIM8777; 1 μM peptide, result in words): able to complement the transformation defect
AILPYFAGCL (fragment) [synthetic peptide corresponding to a C-terminal fragment of Shp316] | 2.21 × 10^−3 | Restoration of the competence defect [1]: allowed to restore the competence defect
ILPYFAG (fragment) [synthetic peptide corresponding to a fragment of Shp316 without the C-terminal CL] | <10^−8 | 
LPYFAGC (fragment) [synthetic peptide, fragment of Shp316 without the carboxy-terminal leucine] | <10^−8 | 
ILPYFAGCL (fragment) [synthetic peptide corresponding to a C-terminal fragment of Shp316] | 3.42 × 10^−3 | Restoration of the competence defect [1]: allowed to restore the competence defect
